Assay results as given in publication PMC13308190, “Endothelial progenitor cell susceptibility to DNA damaging and DDR-modulating compounds determines endothelial differentiation accuracy” (Stem Cell Research & Therapy, 2026).

Tests used:
Assay type in all cases: cell-based, mouse
EC d4 = assay: DNA fiber spreading assay; details: EC d4 48 h; HU: 5 mM, 1 h
Experimental: (§1) To analyze DNA replication fork progression, the DNA fiber spreading assay was performed. Briefly, cells were pulse-labeled with 20 µM CldU (20 min, 37 °C, 5% C0_2) and immediately afterwards with 200 µM IdU (20 min, 37 °C, 5% C02). Cell suspension was applied onto glass slides followed by cell lysis (0.5% SDS, 200 mM Tris–HCl, 50 mM EDTA). After incubation (6 min, RT), slides were tilted upwards to stretch the fibers, dried 6 min lying horizontally flat and fixed (5 min, RT) in methanol: acetic acid (3:1). After drying (7 min, lying horizontally flat) slides were stored overnight in 70% ethanol (4 °C). The next day samples were incubated in 100% methanol (5 min, RT) followed by denaturation in 2.5 M HCl (1 h, RT) and blocking (5% BSA in PBS, 1 h, 37 °C). DNA Fibers were stained with rat anti-BrdU (1:40) for CldU detection and mouse anti-BrdU (1:70) for IdU detection (in 0.5% BSA/PBS; 1 h, RT). After washing (0.05% Tween 20 in PBS and PBS) incubation with secondary antibodies anti-rat 488 (1:400) and anti-mouse 555 (1:250) was performed (1 h, RT, 0.5% BSA in PBS). Following washing with 0.05% Tween 20 in PBS and PBS, the slides were mounted with Fluoroshield (Sigma [Steinheim, Germany]). DNA fibers were analyzed microscopically (Olympus BX43 fluorescence microscope [40 objective]). The length of CldU (green) and IdU (red) tract was measured using ImageJ software, analyzing 200 fibers per experimental condition.

mESC [1] = assay: DNA fiber spreading assay; details: mESC 24 h; HU: 5 mM, 1 h
Experimental: as §1

EC d6 = assay: DNA fiber spreading assay; details: EC d6 24 h; HU: 5 mM, 1 h
Experimental: as §1

[2] = tested on: EC d4 (endothelial progenitor cells); assay: Western blot protein expression (densitometry); details: EC d4 48 h
Experimental: (§2) Total protein cell extracts were obtained upon sonication in RIPA buffer (EpiShearTM Probe sonicator, Active Motif [La Hulpe, Belgium]). Protein concentrations were determined using the DC Protein Assay (BioRad [Munich, Germany]). Extracts were supplemented with Roti®-Load buffer (Carl Roth GmbH [Karlsruhe, Germany]) followed by heating (95 °C for 5 min). 20 µg of protein was separated by SDS-PAGE and transferred onto nitrocellulose membrane. After blocking (5% non-fat milk in TBS/0.1% Tween 20 or 5% BSA in TBS/0.1% Tween 20) (1 h, RT) membrane was incubated with primary antibodies (1:500–5000; overnight, 4 °C). After washing with TBS/0.1% Tween 20, peroxidase-conjugated secondary antibody (1:2000) was added (2 h, RT) and bands were visualized using ChemiDoxTM Touch imaging system (BioRad, Munich, Germany).

mESC [3] = assay: Western blot protein expression (densitometry); details: mESC 24 h
Experimental: as §2

[4] = tested on: EC d6 (endothelial-like cells); assay: Western blot protein expression (densitometry); details: EC d6 24 h
Experimental: as §2

NC(=O)NO [HU, Hydroxyurea]
replication fork progression (EC d4): decreased replication fork speed | replication fork progression (mESC [1]): decreased replication fork speed | replication fork progression (EC d6): decreased replication fork speed

COc1cc([C@@H]2c3cc4c(cc3[C@@H](O[C@@H]3O[C@@H]5CO[C@@H](C)O[C@H]5[C@H](O)[C@H]3O)[C@H]3COC(=O)[C@H]23)OCO4)cc(OC)c1O [Eto, etoposide]
CHK1 protein ([2]; Eto lane of blot Fig 5D - B02): 0.7 Fold of mESC | RAD51 protein ([2]; Eto lane of blot Fig 5D - B02): 1.0 Fold of mESC | p-CHK2 protein ([2]; Eto lane of blot Fig 5D - B02): 0.4 Fold of mESC | p-KAP1 protein ([2]; Eto lane of blot Fig 5D - B02): 0.0 Fold of mESC | p-RPA32 protein ([2]; Eto lane of blot Fig 5D - B02): 0.4 Fold of mESC | p-p53 protein ([2]; Eto lane of blot Fig 5D - B02): 1.7 Fold of mESC | CHK1 protein ([2]; Eto lane of blot Fig 5D - Dox): 1.6 Fold of mESC | RAD51 protein ([2]; Eto lane of blot Fig 5D - Dox): 0.1 Fold of mESC | p-CHK2 protein ([2]; Eto lane of blot Fig 5D - Dox): 0.5 Fold of mESC | p-KAP1 protein ([2]; Eto lane of blot Fig 5D - Dox): 0.0 Fold of mESC | p-RPA32 protein ([2]; Eto lane of blot Fig 5D - Dox): 0.5 Fold of mESC | p-p53 protein ([2]; Eto lane of blot Fig 5D - Dox): 4.8 Fold of mESC | CHK1 protein ([2]; Eto lane of blot Fig 5D - EST): 0.7 Fold of mESC | RAD51 protein ([2]; Eto lane of blot Fig 5D - EST): 1.2 Fold of mESC | p-CHK2 protein ([2]; Eto lane of blot Fig 5D - EST): 1.2 Fold of mESC | p-KAP1 protein ([2]; Eto lane of blot Fig 5D - EST): 0.0 Fold of mESC | p-RPA32 protein ([2]; Eto lane of blot Fig 5D - EST): 0.4 Fold of mESC | p-p53 protein ([2]; Eto lane of blot Fig 5D - EST): 3.0 Fold of mESC | CHK1 protein (mESC [3]; Eto lane of blot Fig 5D - B02): 0.9 Fold of mESC | RAD51 protein (mESC [3]; Eto lane of blot Fig 5D - B02): 1.9 Fold of mESC | p-CHK2 protein (mESC [3]; Eto lane of blot Fig 5D - B02): 0.8 Fold of mESC | p-KAP1 protein (mESC [3]; Eto lane of blot Fig 5D - B02): 49.01 Fold of mESC | p-RPA32 protein (mESC [3]; Eto lane of blot Fig 5D - B02): 0.7 Fold of mESC | p-p53 protein (mESC [3]; Eto lane of blot Fig 5D - B02): 2.1 Fold of mESC | CHK1 protein (mESC [3]; Eto lane of blot Fig 5D - Dox): 2.4 Fold of mESC | RAD51 protein (mESC [3]; Eto lane of blot Fig 5D - Dox): 1.9 Fold of mESC | p-CHK2 protein (mESC [3]; Eto lane of blot Fig 5D - Dox): 1.6 Fold of mESC | p-KAP1 protein (mESC [3]; Eto lane of blot Fig 5D - Dox): 29.7 Fold of mESC | p-RPA32 protein (mESC [3]; Eto lane of blot Fig 5D - Dox): 1.6 Fold of mESC | p-p53 protein (mESC [3]; Eto lane of blot Fig 5D - Dox): 6.9 Fold of mESC | CHK1 protein (mESC [3]; Eto lane of blot Fig 5D - EST): 1.3 Fold of mESC | RAD51 protein (mESC [3]; Eto lane of blot Fig 5D - EST): 2.4 Fold of mESC | p-CHK2 protein (mESC [3]; Eto lane of blot Fig 5D - EST): 1.3 Fold of mESC | p-KAP1 protein (mESC [3]; Eto lane of blot Fig 5D - EST): 36.8 Fold of mESC | p-RPA32 protein (mESC [3]; Eto lane of blot Fig 5D - EST): 1.0 Fold of mESC | p-p53 protein (mESC [3]; Eto lane of blot Fig 5D - EST): 3.7 Fold of mESC | CHK1 protein (mESC [3]; Fig 4H, Eto, Dox 1, B02, EST): 1.0 Fold of mESC | p-ATR protein (mESC [3]; Fig 4H, Eto, Dox 1, B02, EST): 1.6 Fold of mESC | p-CHK1 protein (mESC [3]; Fig 4H, Eto, Dox 1, B02, EST): 2.3 Fold of mESC | p-RPA32 protein (mESC [3]; Fig 4H, Eto, Dox 1, B02, EST): 1.2 Fold of mESC | p-p53 protein (mESC [3]; Fig 4H, Eto, Dox 1, B02, EST): 6.1 Fold of mESC | CHK1 protein ([4]; Eto lane of blot Fig 5D - B02): 0.37 Fold of mESC | RAD51 protein ([4]; Eto lane of blot Fig 5D - B02): 0.38 Fold of mESC | p-CHK2 protein ([4]; Eto lane of blot Fig 5D - B02): 0.04 Fold of mESC | p-KAP1 protein ([4]; Eto lane of blot Fig 5D - B02): 0.00 Fold of mESC | p-RPA32 protein ([4]; Eto lane of blot Fig 5D - B02): 0.04 Fold of mESC | p-p53 protein ([4]; Eto lane of blot Fig 5D - B02): 1.45 Fold of mESC | CHK1 protein ([4]; Eto lane of blot Fig 5D - Dox): 0.6 Fold of mESC | RAD51 protein ([4]; Eto lane of blot Fig 5D - Dox): 0.8 Fold of mESC | p-CHK2 protein ([4]; Eto lane of blot Fig 5D - Dox): 0.2 Fold of mESC | p-KAP1 protein ([4]; Eto lane of blot Fig 5D - Dox): 0.0 Fold of mESC | p-RPA32 protein ([4]; Eto lane of blot Fig 5D - Dox): 0.1 Fold of mESC | p-p53 protein ([4]; Eto lane of blot Fig 5D - Dox): 3.7 Fold of mESC | CHK1 protein ([4]; Eto lane of blot Fig 5D - EST): 0.1 Fold of mESC | RAD51 protein ([4]; Eto lane of blot Fig 5D - EST): 0.5 Fold of mESC | p-CHK2 protein ([4]; Eto lane of blot Fig 5D - EST): 0.4 Fold of mESC | p-KAP1 protein ([4]; Eto lane of blot Fig 5D - EST): 0.0 Fold of mESC | p-RPA32 protein ([4]; Eto lane of blot Fig 5D - EST): < 0.1 Fold of mESC | p-p53 protein ([4]; Eto lane of blot Fig 5D - EST): 2.0 Fold of mESC
